“And” between values parts separate entries of the source, which are not always exact repeats. Identical values can stand only once. “Also recorded” adds a separate entry of the source.
Tests used:
[1] = tested on: gastric mucosa; experiment: In vivo gastric ulcerogenic activity (gross examination of gastric mucosa); details: fasted rats, 60 mg/kg orally, six hours after treatment, 60 mg/kg
Procedure: Compounds were evaluated for acute gastric ulcerogenic effect in adult female Wistar rats. Gross examination was performed for any evidence of hyperaemia, haemorrhage, definite haemorrhagic erosion, or ulcer according to reported procedures[49]^,[51]
Compounds were evaluated for acute gastric ulcerogenic effect in adult female Wistar rats. Rats (150–250 g)
were divided into groups of six rats each and test compounds, references or DMSO as control were
administered orally at a dose of 60 mg/kg body weight (three times the previously used dose). Six hours after
the treatment they were sacrificed under deep ether anesthesia and their stomachs were removed and opened
through greater curvature, washed under running water and fixed in saline solution. Gross examination was
performed for any evidence of hyperemia, hemorrhage, definite hemorrhagic erosion or ulcer 6, 7 (Approved
The degree of ulcerogenicity was determined by viewing the gastric epithelial ulceration using a 5x
magnifying lens and rated by ulcer score.
Ulcer score was used to grade the incidence and severity of the lesions such as:
1) Shedding of epithelium—10
2) Petechial and frank hemorrhages—20
4) More than two ulcers—40

[2] = tested on: 5-LOX; experiment: In vitro 5-LOX inhibitory assay (Abnova 5-LOX inhibitor screening assay kit); type: biochemical
Source text: The newly synthesised compounds were screened for their ability to inhibit 5-LOX enzymes. […] (Page: S21, Supplementary file). […]
In vitro LOX inhibitory assay
Inhibitor Screening Assay Kit detects and measures the hydroperoxides produced in the lipoxygenation reaction using a purified LOX. The detection reaction is equally sensitive to hydroperoxides at various positions within the fatty acid and will work with fatty acids of any carbon length. It is thus a general detection method for 5-LOX and can be used to screen libraries of compounds for those which inhibit 5 -LOX enzymes.
1) Blank Wells- add 100 µL of assay buffer to at least two wells.
2) Positive Control Wells- Lipoxygenase (15-LO standard) add 90 µL 15-LO and 10 µL of assay buffer […]
3) 100% Initial Activity Wells- add 90 µL 15-LO and 10 µL of solvent (DMSO) (the same solvent to dissolve the inhibitor) to two wells. The 100% initial activity wells should result in approximately 10 […]
4) Inhibitor Wells- add 90 µL of sample and I10 µL of inhibitor to two wells.
5) Initiate the reaction by adding 10 µL of substrate (either arachidonic acid or linoleic acid) to all the wells. Place the 96-well plate on a shaker for at least five minutes.
6) Add 100 µL of chromogen to each well to stop enzyme catalysis and develop the reaction. Cover with a plate cover and place the 96-well plate on a shaker for at least five minutes.
7) Remove the cover and read the absorbance at 490-500 nm using a plate reader.
Inhibitors were dissolved in DMSO. The inhibitors were added to the assay in a final volume of 10 µL before initiating with substrate. Three concentrations were prepared (25, 50 and 100 µM) to determine the concentration produced 50% enzyme inhibition.
2) The absorbance of blank wells was subtracted from absorbance of the 100% Initial activity and the […]

[3] = tested on: formalin-induced rat paw oedema; experiment: Formalin-induced paw oedema test (acute inflammation model); type: in vivo; details: for inhibition in vivo at 5 mg/kg: Rattus norvegicus, po, read-out: % Inhibition of oedema volume; for % Relative potency (4h) diclofenac, Mean ± SD / % Relative potency (4h) diclofenac: relative to % inhibition of diclofenac at 4 h
Procedure: Animals Adult female albino rats weighing 150-250 g were used (Experimental Animal Centre in Alexandria University). All animals accessed to food and water ad libitum and were housed in 12 h dark/light cycle in a controlled condition at 23-250C. They were allowed to acclimatize for 1 week prior to experimentation. Procedures involving animals and their care were conducted in conformity with the Guide for the Care and Use of Laboratory Animals published by US National Institute of Health4 (NIH publication No. 83-23, revised) and following the ethical guidelines of Alexandria University on laboratory animals. In all tests, adequate considerations were adopted to reduce pain or discomfort of animals (Approved by AlexU-IACUC) 3. […]
Formalin-induced paw edema test (acute inflammation model):
A solution of freshly prepared formalin 5% was used as a phlogistic agent. A mark was made on the lateral malleolus of the rats’ paws delineating the injection sites. The initial volume of paw was measured by means of digital calibrated Vernier caliper .
After 45 minutes, 40 μl formalin were injected subcutaneously into the sub plantar tissue of the right hind paw of all groups under light ether anesthesia . An equal volume of saline was injected into the left hind paw and served as internal control for the degree of inflammation in the right hind paw. 5, 6 The volume of paw was measured in different treatment groups, 4 h following the formalin injection and the amount of increase in paw volume (edema volume) was calculated by subtracting the volumes before and 4 h after the injection of formalin. Edema was expressed as an increase in the volume of paw, and the percentage of edema inhibition (or percent protection against inflammation) for each rat and each group was calculated according to the following equation: […]
Where Vt is the mean volume of edema at specific time interval (4 h) and Vo is the mean volume of edema […]
Relative potency of the tested compounds was expressed as % inhibition of edema for the tested compounds

[4] = biological target: T1, COX-1 (Ovis aries, UniProt P05979); experiment: In vitro COX-1 inhibitory assay (Cayman colorimetric COX (ovine) inhibitor screening assay kit); type: biochemical; details: mean of three replicates ± SD
T1 construct: purchased Cayman chemicals 560131
T1 sequence (P05979 25-600): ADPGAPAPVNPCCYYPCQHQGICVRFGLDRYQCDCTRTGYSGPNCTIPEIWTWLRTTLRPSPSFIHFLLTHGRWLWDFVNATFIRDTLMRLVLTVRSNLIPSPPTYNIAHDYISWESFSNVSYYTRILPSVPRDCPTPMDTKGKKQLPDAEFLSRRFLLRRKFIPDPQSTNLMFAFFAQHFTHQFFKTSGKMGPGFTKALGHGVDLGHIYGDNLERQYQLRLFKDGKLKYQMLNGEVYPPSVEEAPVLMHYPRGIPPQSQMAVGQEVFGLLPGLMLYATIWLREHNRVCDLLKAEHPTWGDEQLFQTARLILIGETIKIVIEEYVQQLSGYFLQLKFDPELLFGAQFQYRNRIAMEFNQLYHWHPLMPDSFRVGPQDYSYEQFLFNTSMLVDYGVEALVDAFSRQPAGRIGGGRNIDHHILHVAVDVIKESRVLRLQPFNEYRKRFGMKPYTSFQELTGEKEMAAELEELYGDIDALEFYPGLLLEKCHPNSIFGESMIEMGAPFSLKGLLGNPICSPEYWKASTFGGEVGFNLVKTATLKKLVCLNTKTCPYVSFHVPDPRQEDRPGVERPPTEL
Procedure: (Page: S20, Supplementary file).
Anti-inflammatory activity
In vitro COX-1 and COX-2 inhibitory assay […]
supplied by Cayman chemicals, Ann Arbor, MI, USA according to reported method 1. The colorimetric COX inhibitor screening assay utilizes the peroxidase component of cyclooxygenase. The peroxidase activity was assayed calorimetrically by monitoring the appearance of oxidized N,N,N',N'-tetramethyl-1,4-phenylenediamine (TMPD) at 590nm. The appearance of reagent was carried out following the instructions […]
The half- maximal inhibitor concentrations (IC50µM) were determined and the selectivity index (SI) values were calculated as IC50 (COX-1)/IC50 (COX-2).
1) Background wells- 160 µL of assay buffer and 10 µL of heme were added to background wells.
2) The 100% Initial activity wells- 150 µL of assay buffer, 10 µL of heme and 10 µL of enzyme (COX-1 or COX-2) were added.
3) Inhibitor well- 150 µL of assay buffer, 10 µL of heme and 10 µL of enzyme were added.
4) 10 µL of inhibitor (3 concentrations) in DMSO was added to the inhibitor wells to yield a final […]
5) 10 µL of solvent (DMSO) was added to the 100% Initial activity wells and background wells.
7) 20 µL of colorimetric substrate solution (TMPD) was added to all wells.
8) 20 µL of arachidonic acid was added to all wells to yield a final concentration of 100 µM.
10) The absorbance was measured at 590 nm using a plate reader.
The calculations were carried out in the following manner:
1) The average absorbance of all samples was determined.
2) The absorbance of background wells was subtracted from absorbance of the 100% Initial activity […]
3) Percent inhibition = (100% Initial activity – Inhibitor wells/ 100% Initial activity)∗ 100 […]
Place the 96-well plate on a shaker for at least five minutes. […]

[5] = 4 h, individual rats 1-3, 5 mg/kg orally
[6] = relative to % inhibition of celecoxib at 4 h, individual rats 1-3

Compound	Gross appearance of gastric mucosa (ulcerogenic potential) [1]	IC50 [2] [µM]	melting point [°C]	Volume of oedema (ml) 4h ([3]; 4 h after formalin, individual rats 1-3, 5 mg/kg orally, 5 mg/kg) [mL]	inhibition in vivo at 5 mg/kg [3, 5] [%]	% Relative potency (4h) celecoxib, Mean ± SD ([3]; relative to % inhibition of celecoxib at 4 h, group mean ± SD) [%]	% Relative potency (4h) celecoxib [3, 6]	% Relative potency (4h) diclofenac, Mean ± SD ([3]; group mean ± SD) [%]	% Relative potency (4h) diclofenac ([3]; individual rats 1-3)	IC50 [4] [µM]	% inhibition of paw oedema compared with reference drugs (in words) ([3]; 4 h, 5 mg/kg orally, comparison with celecoxib or diclofenac sodium)	Volume of oedema (ml) 0 ([3]; time 0, individual rats 1-3, 5 mg/kg orally, 5 mg/kg) [mL]
COc1ccc(-c2cc(C(=O)NN=Cc3c(C)ccc(C(C)C)c3O)[nH]n2)cc1 [Compound 4c, N'-(2-Hydroxy-3-isopropyl-6-methylbenzylidene)-3–(4-methoxyphenyl)-1H-pyrazole-5-carbohydrazide]	variable degrees of hyperaemia; also recorded: Hyperemia without gross ulceration	2.91 ± 0.068	246 to 248	6.20	66.2	165.7 ± 20.01	188.50% and 151.20% and 157.30%	115.6 ± 21.54	140.0% and 107.60% and 99.20%	10.22 ± 0.046		
COc1ccc(-c2cc(C(=O)NN=Cc3c(C)ccc(C(C)C)c3O)nn2-c2ccc(Cl)cc2)cc1 [Compound 8i, 5-(4-Methoxyphenyl)-1-(4-chlorophenyl)-N'-(2-hydroxy-3-isopropyl-6-methylbenzylidene)-1H-pyrazole-3-carbohydrazide]	variable degrees of hyperaemia; also recorded: Hyperemia without gross ulceration	2.78 ± 0.016	218 to 220		67.6		192.30% and 183.30% and 210.70%	135.4 ± 6.60	142.90% and 130.50% and 132.80%	12.6 ± 0.46	double % inhibition exhibited by Celecoxib	5.30
